# Legend:
# [1] = system: laser-induced thrombosis in the arterioles and venules of the rat mesentery; experiment: laser-induced thrombosis in arterioles of the rat mesentery; format: in vivo, rat (female Sprague-Dawley); conditions: for percentage improvement compared with the placebo controls: 10 mg/kg xanthine derivative and, 1 hour later, 1 mg/kg acetylsalicylic acid orally; for percentage improvement compared with the placebo controls / inhibition in vivo at 10 mg/kg: n = 3; for inhibition in vivo at 10 mg/kg: Rattus norvegicus, po, 10 mg/kg xanthine derivative orally, read-out: percentage improvement compared with the placebo controls; for Changes from controls, % / Changes from controls, absolute / Number of shots: single substance
# Description: The evaluation was carried out by analysis by vital microscopy (Nature, 218 (1968) 887 and Haemostasis 13 (1983) 61 and IRCS Med. Sci. 12 (1984) 91).
# The test substances were administered in 0.9% sodium chloride solution (which contained 1% carboxymethylcellulose (Serva, Heidelberg)) either orally, intraperitoneally or intravenously. Control animals were treated in the corresponding manner but without the test substances. The experimental animals used were male or female Sprague-Dawley or Wistar rats.
# The animals which were to be investigated underwent s.c. premedication with 0.1 mg of atropine sulfate in solution and were anesthetized with 100 mg of ketamine hydrochloride and 4 mg of xylazine per kg of body weight i.p. The investigation made use of arterioles and venules of the mesentery, which was coated with degassed liquid paraffin, having a diameter of about 13 μm. The beam of a 4 W argon laser (supplied by Spectra Physics, Darmstadt) was introduced coaxially, by means of a beam adaptation and adjustment system (supplied by BTG, Munich), into the inverted optical path of a microscope (ICM 405, LD-Epipland 40/0.60; supplied by Zeiss, Oberkochen). The wavelength used was 514.5 nm, with an energy above the objective of 30.5 mW. The exposure time per single shot was 1/15 sec. All the measuring operations were recorded by video camera (Trinicon tube, Sony, Cologne) and stored in a recorder (Sony, U-matic 3/4"). The test substances were administered in various doses to the experimental animals, orally one hour, and on i.v. administration 10 min., before the start of the experiment, control animals receiving the same amount of placebo.
# The number of shots needed to induce a defined thrombus is counted.
# The results of the experiment were subjected to statistical analysis using the .chi.^2 test (L. Cavalli-Sforza, Biometrie (Biostatistics), Stuttgart, 1969, pages 49 et seq.). […]
# platelet aggregation = experiment: ex vivo platelet aggregation (arachidonic acid, Born aggregometer); format: in vivo, rabbit
# [2] = system: induced platelet aggregation; experiment: collagen-induced platelet aggregation in arthritic rats; format: in vivo, rat; conditions: 30 mg, oral 21 days
# Description: (§1) The hemorheological, antithrombotic, antiaggregatory and antiinflammatory effects of the combinations according to the invention were investigated after oral administration for 21 days in the pathological model of adjuvant arthritis (induced with Mycobacterium butyricum) is the rat by the method of Clincal Hemorheology 3 (1983) 469-480, and were compared with those of the appropriate individual substances. Blood was taken from the thoracic aorta 1 hour after the last administration of substance. All the details of the determination of the hemorheological effect were as described in Clinical Hemorheology 4 (1984) 263-273. The erythocyte deformability was quantitatively determined in a filtrometer (Myrenne MF 4, Roetgen, Germany) by evaluation of the initial gradient of the flow curve.
# The measurements of platelet aggregation were carried out as described above in detail. However, instead of arachidonic acid 0.04 mg of collagen was used to induce platelet aggregation in 1 ml of platelet-rich plasma (PA II aggregometer from Myrenne, Roetgen).
# [3] = system: erythrocyte filterability; experiment: erythrocyte filterability in adjuvant arthritis rats; format: in vivo, rat; conditions: oral 21 days
# Description: as §1
# platelets = conditions: only at concentrations above those used in medicinal treatment; cited from earlier work
# [4] = system: adjuvant arthritis (Mycobacterium butyricum) in the rat; experiment: antiinflammatory effect in adjuvant arthritis (paw edema, necrosis index); format: in vivo; conditions: 30 mg
# Description: as §1
# The antiflammatory effect was quantitatively measured, as quoted above, using the volume of the edema of the paw and using the standard necrosis index.
# [5] = system: tendency to thrombosis in arthritic rat; experiment: laser-induced tendency to thrombosis in arthritic rats; format: in vivo; conditions: 30 mg, oral 21 days
# Description: as §1
# The antithrombotic effect was measured using the laser model as described above.
# erythrocytes = conditions: treatment with pentoxifylline; cited from earlier work
# rat aortas = rat aortas ex vivo, treatment of the animals; cited from earlier work
smiles,measurement,setting,value
CC(C)Cn1c(=O)c2c(ncn2CCCCC(C)O)n(C)c1=O (stereo not drawn) [1-(2-Methylpropyl)-3-methyl-7-(5-hydroxyhexyl)-xanthine],percentage improvement compared with the placebo controls,[1],39%
same,inhibition in vivo at 10 mg/kg,[1],29%
CC(=O)CCCCn1cnc2c1c(=O)n(CC(C)C)c(=O)n2C [1-(2-Methylpropyl)-3-methyl-7-(5-oxohexyl-)-xanthine],percentage improvement compared with the placebo controls,[1],39%
same,inhibition in vivo at 10 mg/kg,[1],28%
CC(C)CCn1c(=O)c2c(ncn2CCCCC(C)O)n(C)c1=O (stereo not drawn) [1-(3-Methylbutyl)-3-methyl-7-(5-hydroxyhexyl-)-xanthine],percentage improvement compared with the placebo controls,[1],37%
same,inhibition in vivo at 10 mg/kg,[1],28%
CC(=O)CCCCn1cnc2c1c(=O)n(CCC(C)C)c(=O)n2C [1-(3-Methylbutyl-3-methyl-7-(5-oxo-hexyl)-xanthine],percentage improvement compared with the placebo controls,[1],35%
same,inhibition in vivo at 10 mg/kg,[1],26%
CCCn1cnc2c1c(=O)n(CCC(C)=O)c(=O)n2C [1-(3-Oxobutyl)-3-methyl-7-propyl-xanthine],percentage improvement compared with the placebo controls,[1],49%
same,inhibition in vivo at 10 mg/kg,[1],40%
"CC(O)CCCCn1c(=O)c2c(ncn2C)n(C)c1=O (stereo not drawn) [1-(5-Hydroxyhexyl)-3,7-dimethyl-xanthine, 1-(5-hydroxyhexyl)-3,7-dimethylxanthine]",percentage improvement compared with the placebo controls,[1],68%
same,inhibition in vivo at 10 mg/kg,[1],52%
CC(C)Cn1cnc2c1c(=O)n(CCCCC(C)O)c(=O)n2C (stereo not drawn) [1-(5-Hydroxyhexyl)-3-methyl-7-(2-methyl-propyl)-xanthine],percentage improvement compared with the placebo controls,[1],34%
same,inhibition in vivo at 10 mg/kg,[1],23%
CCCn1cnc2c1c(=O)n(CCCCC(C)O)c(=O)n2C (stereo not drawn) [1-(5-Hydroxyhexyl)-3-methyl-7-propylxanthine],percentage improvement compared with the placebo controls,[1],53%
same,inhibition in vivo at 10 mg/kg,[1],40%
CC(=O)CCCCn1c(=O)c2c(ncn2CC(C)C)n(C)c1=O [1-(5-Oxohexyl)-3-methyl-7-(2-methyl-propyl-)-xanthine],percentage improvement compared with the placebo controls,[1],39%
same,inhibition in vivo at 10 mg/kg,[1],28%
CCCn1cnc2c1c(=O)n(CCCCC(C)=O)c(=O)n2C [1-(5-Oxohexyl)-3-methyl-7-propylxanthine],percentage improvement compared with the placebo controls,[1],56%
same,inhibition in vivo at 10 mg/kg,[1],42%
CC(O)CCCCn1cnc2c1c(=O)n(C(C)C)c(=O)n2C (stereo not drawn) [1-(Isopropyl)-3-methyl-7-(5-hydroxy-hexyl-)-xanthine],percentage improvement compared with the placebo controls,[1],36%
same,inhibition in vivo at 10 mg/kg,[1],31%
CCn1c(=O)c2c(ncn2CCCCC(C)=O)n(CC)c1=O [1-Ethyl-3-ethyl-7-(5-oxohexyl-)-xanthine],percentage improvement compared with the placebo controls,[1],48%
same,inhibition in vivo at 10 mg/kg,[1],41%
"CCCCCCn1c(=O)c2c(ncn2C)n(C)c1=O [1-Hexyl-3,7-dimethylxanthine]",percentage improvement compared with the placebo controls,[1],46%
same,inhibition in vivo at 10 mg/kg,[1],39%
CCCn1c(=O)c2c(ncn2CCCCC(C)O)n(C)c1=O (stereo not drawn) [1-Propyl-3-methyl-7-(5-hydroxyhexyl-)-xanthine],percentage improvement compared with the placebo controls,[1],42%
same,inhibition in vivo at 10 mg/kg,[1],35%
CCCCn1c(=O)c2c(ncn2CC(C)=O)n(CCCC)c1=O [1-n-Butyl-3-n-butyl-7-(2-oxopropyl-)-xanthine],percentage improvement compared with the placebo controls,[1],50%
same,inhibition in vivo at 10 mg/kg,[1],33%
"CC(=O)Oc1ccccc1C(=O)O [DL-Lysine monoacetylsalicylate, D,L-lysine monoacetylsalicylate]",Aggregation amplitude E ex vivo,"platelet aggregation; I, at 30 min, 1,5 mg/kg i.v. at 15 min","23,5"
same,Aggregation amplitude E ex vivo,"platelet aggregation; I, at 45 min, 1,5 mg/kg i.v. at 15 min and 0,5 mg/kg at 35 min","19,5"
"CC(=O)CCCCn1c(=O)c2c(ncn2C)n(C)c1=O [Pentoxifylline, 1-(5-oxohexyl)-3,7-dimethylxanthine]",induced platelet aggregation,[2],94%
same,erythrocyte filterability,[3]; 30 mg,79%
same,erythrocyte filterability in arthritic rats (in words),[3],can be increased again
same,in vitro aggregation of platelets,platelets,can be inhibited
same,"Percentage improvement, volume of paw edema, left paw",[4],3%
same,"Percentage improvement, volume of paw edema, right paw",[4],0%
same,"Changes from controls, %",[1]; 5 mg/kg oral,21%
same,"Changes from controls, absolute",[1]; 5 mg/kg oral,"0,46"
same,Number of shots,[1]; 5 mg/kg oral,"2,63"
same,"Changes from controls, %",[1]; 10 mg/kg oral,54%
same,"Changes from controls, absolute",[1]; 10 mg/kg oral,"1,16"
same,Number of shots,[1]; 10 mg/kg oral,"3,33"
same,"Changes from controls, %",[1]; 30 mg/kg oral,83%
same,"Changes from controls, absolute",[1]; 30 mg/kg oral,"1,8"
same,Number of shots,[1]; 30 mg/kg oral,"3,97"
same,-x (number of shots),"[1]; Table 1b, 10 mg/kg pentoxifylline orally without acetylsalicylic acid","3,27"
same,% change from controls,"[1]; Table 1b, 10 mg/kg pentoxifylline orally without acetylsalicylic acid, p < 0,05",+49%
same,effect in laser-induced thrombosis,[1]; oral dose 10 mg/kg,significant effect
same,effect in laser-induced thrombosis,[1]; single oral dose 5 mg/kg,not significant
same,inhibition of thrombus formation,[1]; single oral dose 5 mg/kg,20%
same,Aggregation amplitude E ex vivo,"platelet aggregation; III, at 45 min, 10 mg/kg i.v. at 15 min",22
same,Aggregation amplitude E ex vivo,"platelet aggregation; III, at 120 min, 10 mg/kg i.v. at 15 min and 10 mg/kg at 60 min",20
same,tendency to thrombosis (number of shots),[5],87%
same,deformability of the erythrocytes,erythrocytes,improved
same,release of a substance having antiaggregatory activity,rat aortas,can be increased

# From patent US4880791A, “Combination product composed of xanthine derivatives and O-acetylsalicylic acid or its pharmacologically tolerated salts, and its use” (priority 1984, dated 1989)
